According to patent publication US8466107B2, “Fibrin-binding peptides and conjugates thereof” (Bracco Imaging SpA, priority 2006, dated 2013):
Bridge positions count the residues as written; N and C are the ends.

Tested on: neuroblastoma (Neuro-2a) tumor
Test: In vivo MRI test of fibrin imaging in neuroblastoma tumor mouse model
Settings: mice with neuroblastoma tumor; 25 μmol/kg iv.; T1 weighted MRI at 2T, 4 h post injection
From the text: Three groups of 5 mice each, inoculated with 2·10^6 neuroblastoma cells with PBS, were formed and tested as follows: • Group a: Reference compound 2, • Group b: Chelate Complex 1 • Group c: ProHance® (see Protocol)
At day-10 post tumor cells inoculation, at least 4 mice per group with similar tumor size (5-10 mm in diameter) were selected for the in vivo MRI tests. After pre-contrast MRI acquisition (T1 and T2 high resolution 2D spin-echo and 3D gradient echo images), the test compounds were administered (25 μmol/kg iv.) and MRI was performed at 4 h and 24 h post injection. Maximum signal intensity was measured in the entire tumor area and in each post contrast image covering the whole tumor and the signal was compared to the pre-contrast images. At the end of MRI exams, all animals were sacrificed and the tumor, blood, liver, kidneys and femoral bone were removed and prepared for Gd assay by ICP-AES. […]
The mean signal intensity was measured within a region of interest (ROI) including the entire tumor, drawn by an operator on each MR image using dedicated software (MR Research Systems Ltd, Surrey UK). Signal intensity enhancement (Enh %) was determined as: Enh%=100*(SIx(t)−SI0)/SI0 […]

With “Chelated Complex 1: Gd chelated complex (four DTPA-Glu units on branched lysine linker) conjugated to the fibrin-binding peptide; MRI contrast agent (Ac-WQPCPAESWTFCWDPGGGK-NH2; disulfide 4-12; not fully specified (some residues); also: further groups not given here)” the tumor signal enhancement was “significant tumor signal enhancement”.
